# Laboratory results as given in ChEMBL document CHEMBL1781981, “Identification of a novel series of 3-piperidinyl-5-sulfonylindazoles as potent 5-HT6 ligands” (Bioorg Med Chem Lett, 2009).
# Biological target: 5-hydroxytryptamine receptor 6 (Homo sapiens, UniProt P50406)
# Experiment: Antagonist activity at human 5HT6 receptor expressed in HeLa cells assessed as inhibition of 5-HT-induced cAMP accumulation
# Assay type: functional, cell-based
# Sequence of 5-hydroxytryptamine receptor 6 (P50406 whole entry): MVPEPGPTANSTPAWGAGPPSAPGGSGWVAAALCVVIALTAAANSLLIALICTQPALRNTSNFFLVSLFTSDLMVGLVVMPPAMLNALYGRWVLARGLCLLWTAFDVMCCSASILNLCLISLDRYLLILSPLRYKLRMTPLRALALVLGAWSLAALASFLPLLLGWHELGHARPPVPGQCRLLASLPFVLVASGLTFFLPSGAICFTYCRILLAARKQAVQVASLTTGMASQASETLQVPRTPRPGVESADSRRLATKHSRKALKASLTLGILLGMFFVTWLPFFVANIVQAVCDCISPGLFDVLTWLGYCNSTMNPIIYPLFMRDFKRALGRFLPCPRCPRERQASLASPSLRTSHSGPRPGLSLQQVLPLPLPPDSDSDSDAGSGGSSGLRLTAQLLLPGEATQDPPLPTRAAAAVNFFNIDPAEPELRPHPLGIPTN
IC50 [nM],Imax [%],Compound
102,100,CN1CCC(c2n[nH]c3ccc(S(=O)(=O)c4ccc5ccccc5c4)cc23)CC1
108,100,CC(C)c1ccc(S(=O)(=O)c2ccc3[nH]nc(C4CCN(C)CC4)c3c2)cc1
251,100,CN1CCC(c2n[nH]c3ccc(S(=O)(=O)c4cccc5ccccc45)cc23)CC1
754,95,CN1CCC(c2n[nH]c3ccc(S(=O)(=O)c4cccc(Cl)c4)cc23)CC1
